Common to all, as to assay type: in vivo, rat
Assay [1] deals with urethane-anesthetized female rats. Briefly: Antagonism of the leak point pressure increase by WAY-161503 / WAY-163909, abdominal wall-electrically stimulating method (Example 3). As to conditions: agonist 0.3 mg/kg, i.v., antagonist: solvent, mean ± SEM. As to the method:
SD female rats (body weight 180-350 g) were anesthetized with urethane (Wako Pure Chemical Industries, Ltd.), and the spinal cord was transected at T8-9 level to eliminate the reflex voiding. In addition, the nerve to the iliococcygeus muscle/pubococcygeus muscle on the one side was transected. During operation, halothane (Takeda Pharmaceutical Company Limited) anesthesia was added when necessary. A catheter (PE-90, Clay Adams) was inserted into the bladder and secured with a ligature, and the incised part of each of the abdominal muscle and skin was closed with sutures. The abdominal skin near the diaphragm was incised at two left and right positions to newly expose the abdominal muscle. An Evans Blue dye (Merck) solution was injected into the bladder, and the bladder volume was adjusted to 0.2-0.3 ml. The bladder catheter was connected to a pressure transducer, and the signals of the transducer were sent to a computer via an amplifier (blood pressure amplification unit AP-641G; NIHON KOHDEN) and an analog-to-digital converter (BIOPAC; MP100), and recorded on a hard disc. The data were analyzed on a computer using software (BIOPAC; AcqKnowledge). The exposed abdominal muscle was electrostimulated using an electrostimulator (SEN-3301; NIHON KODEN) and an isolator (SS-202J; NIHON KODEN), and the presence or absence of incontinence from the meatus urethra was observed. The electrostimulation was applied at a voltage of 2.5-50 V, duration of 0.5 milisec, and frequency 50 Hz for 1 sec, thereby gradually increasing the intravesical pressure. The peak intravesical pressure during stimulation of the abdominal wall was measured and, of the trials with observed incontinence, the lowest peak intravesical pressure was defined as the leak point pressure. Serotonin 5-HT receptor agonist, WAY-161503 (5-HT2C receptor agonist), WAY-163909 (5-HT2C receptor agonist), DOI (5-HT2A/2B/2C receptor agonist), mCPP (5-HT2B/2C receptor partial agonist), eltoprazine (5-HT1A/1B/2C receptor partial agonist), 8-OH-DPAT (5-HT1A receptor agonist), sumatryptan (5-HT1B/1D receptor agonist) and BW723C86 (5-HT2B receptor agonist) were intravenously administered, and the leak point pressure was compared before and after the administration. DOI, mCPP and eltoprazine were dissolved in saline, and other drugs were dissolved in DMA/PEG400 (1:1), and they were intravenously administered at 1 ml/kg and 0.5 mg/kg, respectively. Depending on the experiment, RS-102221 (serotonin 5-HT2C receptor antagonist) or SB221284 (serotonin 5-HT2B/2C receptor antagonist) was intravenously administered 5 min before WAY-161503 or WAY-163909 administration, and an antagonistic effect against the WAY-161503 or WAY-163909-induced increment of the leak point pressure was examined. RS-102221 and SB221284 were both dissolved in DMA/PEG400 (1:1) and intravenously administered at 0.5 ml/kg.

Assay [2] has the same test system. The assay can be described thus: Leak point pressure by abdominal wall-electrically stimulating method, serotonin 5-HT receptor agonists (Example 3). As to conditions: for leak point pressure after drug administration / leak point pressure increase / leak point pressure before drug administration: i.v., mean ± SEM; for leak point pressure before drug administration: baseline. The method, boiled down:
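Urethane-anesthetized SD female rats with T8-9 spinal transection and unilateral iliococcygeus/pubococcygeus nerve cut; abdominal wall stimulated (2.5-50 V, 0.5 ms, 50 Hz, 1 s) and lowest peak bladder pressure giving leakage taken as leak point pressure, before vs after i.v. agonist. Antagonists RS-102221 or SB221284 (DMA/PEG400, 0.5 ml/kg i.v.) given 5 min before WAY-161503 or WAY-163909.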

For assay [3] the test system is unchanged. Briefly: Leak point pressure by abdominal wall electrostimulation, rats with nerve to iliococcygeus/pubococcygeus muscle transected on one side (Example 2). As to conditions: for leak point pressure after drug administration / leak point pressure increase / leak point pressure before drug administration: i.v., mean ± SEM; for leak point pressure before drug administration: baseline. How it is done: SD female rats (body weight 180-350 g) were anesthetized with urethane (Wako Pure Chemical Industries, Ltd.), and the spinal cord was cut at T8-9 level to eliminate the reflex voiding. In addition, the nerve to the iliococcygeus muscle/pubococcygeus muscle on the one side was transected. During operation, halothane (Takeda Pharmaceutical Company Limited) anesthesia was added when necessary. A catheter (PE-90, Clay Adams) was inserted into the bladder and secured with a ligature, and the incised part of each of the abdominal muscle and skin was closed with sutures. The abdominal skin near the diaphragm was incised at two left and right positions to newly expose the abdominal muscle. An Evans Blue dye (Merck) solution was injected into the bladder, and the bladder volume was adjusted to 0.2-0.3 ml. The bladder catheter was connected to a pressure transducer, and the signals of the transducer were sent to a computer via an amplifier (blood pressure amplification unit AP-641G; NIHON KOHDEN) and an analog-to-digital converter (BIOPAC; MP100), and recorded on a hard disc. The data were analyzed on a computer using software (BIOPAC; AcqKnowledge). The exposed abdominal muscle was electrostimulated using an electrostimulator (SEN-3301; NIHON KODEN) and an isolator (SS-202J; NIHON KODEN), and the presence or absence of incontinence from the urethral orifice was observed. The electrostimulation was applied at a voltage of 3-50 V, duration of 0.05-0.5 milisec, and frequency 50 Hz for 1 sec, thereby gradually increasing the intravesical pressure. The peak intravesical pressure during stimulation of the abdominal wall was measured and, of the trials with observed incontinence, the lowest peak intravesical pressure was defined as the leak point pressure. The leak point pressure was compared before and after the duloxetine and midodrine administration. Duloxetine was dissolved in […] (DMA)/polyethylene glycol 400 (PEG400) (1:1), and intravenously administered at 0.5 ml/kg. Midodrine (hydrochloride, Sigma) was dissolved in saline and intravenously administered at 1 ml/kg.

Regarding `O=C1Nc2cc(Cl)c(Cl)cc2N2CCNCC12` (stereo not drawn) [WAY-161503], the “leak point pressure after drug administration” value in assay [1] came out at 76.6 ± 5.4 cmH2O; in assay [2] (0.03 mg/kg), 58.7 ± 6.8 cmH2O; in assay [2] (0.1 mg/kg) it was 59.5 ± 4.9 cmH2O; in assay [2] (0.3 mg/kg), 68.1 ± 6.8 cmH2O; in assay [2] (1 mg/kg), 80.1 ± 2.7 cmH2O. The “leak point pressure increase” value in assay [1] worked out at 27.8 ± 2.8 cmH2O; in assay [2] (0.03 mg/kg), 9.7 ± 2.9 cmH2O; in assay [2] (0.1 mg/kg), 12.6 ± 2.8 cmH2O; in assay [2] (0.3 mg/kg), 19.6 ± 4.4 cmH2O; in assay [2] (1 mg/kg), 30.7 ± 3.5 cmH2O. Besides, the “leak point pressure before drug administration” value in assay [1] (baseline) is on record as 48.7 ± 5.3 cmH2O; in assay [2] (dose group 0.03 mg/kg) it was 49.0 ± 8.0 cmH2O; in assay [2] (dose group 0.1 mg/kg) it was 46.9 ± 4.6 cmH2O; in assay [2] (dose group 0.3 mg/kg) it was 48.5 ± 5.2 cmH2O; in assay [2] (dose group 1 mg/kg), 49.4 ± 1.4 cmH2O. In assay [2] (intravenous administration), the “dose at which a significant effect on the leak point pressure was afforded” value is on record as “not less than 0.03 mg/kg”. The “effect on leak point pressure” value in assay [2] (intravenous administration) is “dose-dependently increased the leak point pressure”.

Take `CNCC[C@H](Oc1cccc2ccccc12)c1cccs1` [duloxetine]: the “leak point pressure after drug administration” value in assay [3] (0.3 mg/kg) is listed as 48.3 ± 7.9 cmH2O; in assay [3] (1 mg/kg), 53.0 ± 4.8 cmH2O; in assay [3] (3 mg/kg) it was 61.4 ± 3.9 cmH2O; in assay [3] (10 mg/kg), 53.0 ± 8.8 cmH2O. Also, the “leak point pressure increase” value in assay [3] (0.3 mg/kg) is reported as 2.4 ± 4.3 cmH2O; in assay [3] (1 mg/kg), 8.1 ± 2.3 cmH2O; in assay [3] (3 mg/kg), 12.9 ± 3.2 cmH2O; in assay [3] (10 mg/kg), 13.0 ± 2.5 cmH2O. In addition, the “leak point pressure before drug administration” value in assay [3] (dose group 0.3 mg/kg) was found to be 45.9 ± 5.4 cmH2O; in assay [3] (dose group 1 mg/kg), 44.9 ± 5.9 cmH2O; in assay [3] (dose group 3 mg/kg), 48.5 ± 4.8 cmH2O; in assay [3] (dose group 10 mg/kg), 40.0 ± 7.3 cmH2O. The “effect on leak point pressure, comparison before and after administration” value in assay [3] (intravenously administered) is listed as “significant increase in the leak point pressure”.

The values are drawn from US8685924B2, “Preventives/remedies for stress urinary incontinence and method of screening the same” (Takeda Pharmaceutical Company Limited, priority 2004, dated 2014).
